This note sets out measurements from article PMC6099232, “High V‐PPase activity is beneficial under high salt loads, but detrimental without salinity” (The New Phytologist, 2018).

As a reminder, the Km is the concentration of substrate that gives half-maximal velocity.

For series [1], the target named is T1, NbVHP2 (Nicotiana benthamiana, UniProt A0A238MN04).
T1 construct: gene NbPPA1.1; full-length cDNA, untagged, ubiquitin promoter in pCambia2200 with separate free eGFP; transient overexpression in N. benthamiana mesophyll; vacuoles also hold endogenous NbVHP1/2
T1 sequence (A0A238MN04 1-766): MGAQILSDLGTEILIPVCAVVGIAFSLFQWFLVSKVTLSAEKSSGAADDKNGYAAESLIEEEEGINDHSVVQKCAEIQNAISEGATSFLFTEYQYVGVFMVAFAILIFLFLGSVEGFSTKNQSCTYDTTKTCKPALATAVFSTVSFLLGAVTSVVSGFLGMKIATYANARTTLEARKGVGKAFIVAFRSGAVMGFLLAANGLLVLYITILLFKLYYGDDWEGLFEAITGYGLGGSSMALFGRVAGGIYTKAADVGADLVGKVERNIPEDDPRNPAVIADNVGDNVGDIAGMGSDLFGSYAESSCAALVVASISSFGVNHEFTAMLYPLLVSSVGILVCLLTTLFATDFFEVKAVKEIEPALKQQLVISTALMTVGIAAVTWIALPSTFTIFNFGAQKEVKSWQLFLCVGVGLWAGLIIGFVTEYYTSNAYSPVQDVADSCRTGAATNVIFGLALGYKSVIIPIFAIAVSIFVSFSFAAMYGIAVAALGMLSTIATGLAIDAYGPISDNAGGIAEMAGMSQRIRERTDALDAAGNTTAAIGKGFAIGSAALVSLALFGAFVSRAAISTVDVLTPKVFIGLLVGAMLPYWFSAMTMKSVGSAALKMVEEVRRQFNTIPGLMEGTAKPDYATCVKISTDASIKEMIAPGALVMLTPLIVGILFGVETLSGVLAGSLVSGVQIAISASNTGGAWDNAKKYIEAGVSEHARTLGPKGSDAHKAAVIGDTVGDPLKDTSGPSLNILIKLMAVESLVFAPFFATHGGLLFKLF
Nature of the series: whole-vacuole patch clamp, PPi-induced proton pump current. It counts as biochemical. To be noted: 150 μM PPi, 0 mV; 5 mM MgCl2, 100 mM K-gluconate, 0.1 mM CaCl2, pH 7.5; endogenous NbVHP background.

The target of series [2] is T2, IPP1 (Saccharomyces cerevisiae, UniProt P00817).
T2 construct: soluble PPase, cDNA under ubiquitin promoter in pCambia2200, transiently overexpressed in N. benthamiana leaves
Nature of the series: PPi hydrolysis activity of leaf protein extract. Type of series: biochemical. To be noted: activity compared with control.

Substrate in series [3]: O=P(O)(O)OP(=O)(O)O
Nature of the series: whole-vacuole patch clamp, PPi-induced proton pump current. The following applies: 0 mV, cytosolic pH 7.5, global fit of luminal pH 7.5 and 5.5, 5 mM MgCl2, 100 mM K-gluconate, 0.1 mM CaCl2, endogenous NbVHP background. It counts as biochemical, Nicotiana benthamiana. In general terms: In patch-clamp work, channel activity is measured electrically.

Substrate in series [4]: O=P(O)(O)OP(=O)(O)O
Described as above. Type of series: biochemical, Arabidopsis thaliana. To be noted: 0 mV, 5 mM MgCl2, 100 mM K-gluconate, 0.1 mM CaCl2, pH 7.5, about one-third of current from endogenous NbVHP1/2.

T2 sequence (P00817 2-287): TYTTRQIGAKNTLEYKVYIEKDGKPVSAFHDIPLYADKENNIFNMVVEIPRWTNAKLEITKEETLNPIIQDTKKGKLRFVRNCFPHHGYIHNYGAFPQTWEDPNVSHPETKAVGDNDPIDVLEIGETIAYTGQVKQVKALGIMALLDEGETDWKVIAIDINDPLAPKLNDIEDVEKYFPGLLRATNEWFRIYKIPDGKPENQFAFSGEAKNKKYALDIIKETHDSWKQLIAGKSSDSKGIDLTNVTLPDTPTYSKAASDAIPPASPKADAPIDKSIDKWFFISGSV

On to `O=P(O)(O)OP(=O)(O)O` [PPi, pyrophosphate], for which the “whole-vacuole patch clamp, PPi-induced proton pump current” value in series [1] was “almost four times higher in vacuoles from NbVHP1‐ or NbVHP2‐overexpressing mesophyll cells”. Besides, in series [2], the “PPi hydrolysis activity of leaf protein extract” value is given as “IPP1‐transformed N. benthamiana leaves exhibited a hydrolytic PPi activity”.

B1: NbVHP1 (Nicotiana benthamiana) (protein)
chain: MGAALLPDLGTEIVIPVCAVIGIVFSLVQWYIVSNVKLTPESSSPSNNGKNGYGDYLIEEEEGINDQNVVVKCAEIQNAISEGATSFLFTEYQYVGIFMIAFAILIFLFLGSVEGFSTKSQPCTYNKEKLCKPALATAIFSTVSFLLGAITSVVSGFLGMKVATYANARTTLEARKGVGKAFIVAFRSGAVMGFLLAANGLLVLYIAINLFKLYYGDDWEGLFEAITGYGLGGSSMALFGRVGGGIYTKAADVGADLVGKVERNIPEDDPRNPAVIADNVGDNVGDIAGMGSDLFGSYAEASCAALVVASISSFGINHEFTAMLYPLLISSMGVLICLITTLFATDFFEIKAVKEIEPALKNQLIISTALMTVGIAIVTWTCLPSSFTIFNFGAQKVVKNWQLFLCVAVGLWAGLIIGFVTEYYTSNTYSPVQDVADSCRTGAATNVIFGLALGYKSVIIPIFAIAIAIFVSFSFAAMYGIAVAALGMLSTIATGLAIDAYGPISDNAGGIAEMAGMSHRIRERTDALDAAGNTTAAIGKGFAIGSAALVSLALFGAFVSRAAITTVDVLTPQVFIGLIVGAMLPYWFSAMTMKSVGSAALKMVEEVRRQFNTIPGLMEGTAKPDYATCVKISTDASIKEMIPPGALVMLTPLIVGIFFGVETLSGVLAGALVSGVQIAISASNTGGAWDNAKKYIEAGASEHARTLGPKGSEPHKAAVIGDTIGDPLKDTSGPSLNILIKLMAVESLVFAPFFATHGGLLFKIF
notes: full-length cDNA, untagged, ubiquitin promoter in pCambia2200 with separate free eGFP; transient overexpression in N. benthamiana mesophyll; vacuoles also hold endogenous NbVHP1/2; homodimer of c; 80 kDa polypeptide
As to B1, the Km in series [3] was found to be 65 ± 9 µM.

B2: AtVHP1 (Arabidopsis thaliana) (protein)
chain: MVAPALLPELWTEILVPICAVIGIAFSLFQWYVVSRVKLTSDLGASSSGGANNGKNGYGDYLIEEEEGVNDQSVVAKCAEIQTAISEGATSFLFTEYKYVGVFMIFFAAVIFVFLGSVEGFSTDNKPCTYDTTRTCKPALATAAFSTIAFVLGAVTSVLSGFLGMKIATYANARTTLEARKGVGKAFIVAFRSGAVMGFLLAASGLLVLYITINVFKIYYGDDWEGLFEAITGYGLGGSSMALFGRVGGGIYTKAADVGADLVGKIERNIPEDDPRNPAVIADNVGDNVGDIAGMGSDLFGSYAEASCAALVVASISSFGINHDFTAMCYPLLISSMGILVCLITTLFATDFFEIKLVKEIEPALKNQLIISTVIMTVGIAIVSWVGLPTSFTIFNFGTQKVVKNWQLFLCVCVGLWAGLIIGFVTEYYTSNAYSPVQDVADSCRTGAATNVIFGLALGYKSVIIPIFAIAISIFVSFSFAAMYGVAVAALGMLSTIATGLAIDAYGPISDNAGGIAEMAGMSHRIRERTDALDAAGNTTAAIGKGFAIGSAALVSLALFGAFVSRAGIHTVDVLTPKVIIGLLVGAMLPYWFSAMTMKSVGSAALKMVEEVRRQFNTIPGLMEGTAKPDYATCVKISTDASIKEMIPPGCLVMLTPLIVGFFFGVETLSGVLAGSLVSGVQIAISASNTGGAWDNAKKYIEAGVSEHAKSLGPKGSEPHKAAVIGDTIGDPLKDTSGPSLNILIKLMAVESLVFAPFFATHGGILFKYF
notes: untagged cDNA, ubiquitin promoter in pCambia2200 with separate free eGFP; transient overexpression in N. benthamiana mesophyll; about one-third of the current from endogenous NbVHP1/2
Take B2: the Km in series [4] was found to be 75 ± 11 µM.
